Measurements: PubChem BioAssay AID248 (DTP/NCI, 2004)
Several values for one entry are separate records, joined by “and”; a condition that tells them apart may be missing. Equal values may be shown once. Inconclusive results and toxic doses are left out. No stated cut-off is given here; in the data, active means T/C of 150% or more; inactive means T/C below 125%.

Test system: L1210 leukemia ip in BDF1 mice, survival T/C
Assay: NCI In Vivo Anticancer Drug Screen. Data for tumor model L1210 Leukemia (intraperitoneal) in B6D2F1 (BDF1) mice
Settings: endpoint: mean survival time, higher = longer survival
How it was run: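 Value reflects the ratio of survival in compound-treated mice to survival in vehicle-treated controls, with both groups carrying the same transplanted tumor.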

[1] = dose: 100.0 mg/kg/injection, schedule: Q04DX003 (ip), vehicle: saline with Tween-80
[2] = dose: 75.0 mg/kg/injection, schedule: Q01DX001 (ip), vehicle: saline
[3] = dose: 150.0 mg/kg/injection, schedule: Q01DX001 (ip), vehicle: saline
[4] = dose: 200.0 mg/kg/injection, schedule: Q04DX003 (ip), vehicle: saline with Tween-80
[5] = dose: 400.0 mg/kg/injection, schedule: Q04DX003 (ip), vehicle: saline with Tween-80
[6] = dose: 100.0 mg/kg/injection, schedule: Q04DX003 (ip), vehicle: Klucel (hydroxypropylcellulose) (HPC)
[7] = dose: 200.0 mg/kg/injection, schedule: Q04DX003 (ip), vehicle: Klucel (hydroxypropylcellulose) (HPC)
[8] = dose: 400.0 mg/kg/injection, schedule: Q04DX003 (ip), vehicle: Klucel (hydroxypropylcellulose) (HPC)
[9] = dose: 100.0 mg/kg/injection, schedule: Q01DX001 (ip), vehicle: saline
[10] = dose: 200.0 mg/kg/injection, schedule: Q01DX001 (ip), vehicle: saline
[11] = dose: 400.0 mg/kg/injection, schedule: Q01DX001 (ip), vehicle: saline
[12] = dose: 100.0 mg/kg/injection, schedule: Q01DX009 (ip), vehicle: saline with Tween-80
[13] = dose: 200.0 mg/kg/injection, schedule: Q01DX009 (ip), vehicle: saline with Tween-80
[14] = dose: 400.0 mg/kg/injection, schedule: Q01DX009 (ip), vehicle: saline with Tween-80
[15] = dose: 100.0 mg/kg/injection, schedule: Q01DX009 (ip), vehicle: saline
[16] = dose: 100.0 mg/kg/injection, schedule: Q04DX003 (ip), vehicle: saline
[17] = dose: 200.0 mg/kg/injection, schedule: Q04DX003 (ip), vehicle: saline
[18] = dose: 400.0 mg/kg/injection, schedule: Q04DX003 (ip), vehicle: saline
[19] = dose: 100.0 mg/kg/injection, schedule: Q01DX001 (ip), vehicle: Klucel (hydroxypropylcellulose) (HPC)
[20] = dose: 200.0 mg/kg/injection, schedule: Q01DX001 (ip), vehicle: Klucel (hydroxypropylcellulose) (HPC)
[21] = dose: 400.0 mg/kg/injection, schedule: Q01DX001 (ip), vehicle: Klucel (hydroxypropylcellulose) (HPC)
[22] = dose: 100.0 mg/kg/injection, schedule: Q01DX009 (ip), vehicle: Klucel (hydroxypropylcellulose) (HPC)
[23] = dose: 200.0 mg/kg/injection, schedule: Q01DX009 (ip), vehicle: Klucel (hydroxypropylcellulose) (HPC)

Measured: T/C

COc1ccc(CC2=NCCN2)cc1
inactive: dose: 25.0 mg/kg/injection, schedule: Q04DX003 (ip), vehicle: saline with Tween-80 91 % of control | dose: 50.0 mg/kg/injection, schedule: Q04DX003 (ip), vehicle: saline with Tween-80 93 % of control | [1] 101 % of control and 89 % of control

CCCCN(CCCC)CC(O)c1cc(-c2ccccc2)nc2c(N)cccc12 (stereo unspecified)
inactive: [2] 98 % of control | [3] 100 % of control | dose: 300.0 mg/kg/injection, schedule: Q01DX001 (ip), vehicle: saline 96 % of control

O=C(NCc1ccccc1)C1C2C=CC(CC2)C1C(=O)NCc1ccccc1 (stereo unspecified)
inactive: [1] 96 % of control | [4] 96 % of control | [5] 87 % of control

COC(=O)c1ccc(OC(=S)N(C)C)cc1
inactive: [6] 93 % of control | [7] 98 % of control | [8] 95 % of control

O=c1[nH]c(=O)n(Cc2ccccc2)cc1Cc1cccc(OCc2ccccc2)c1
inactive: [1] 97 % of control | [4] 96 % of control | [5] 97 % of control

O=C(O)c1ccc(C(=O)O)c(O)c1
inactive: [9] 105 % of control | [10] 97 % of control | [11] 94 % of control

O=C(C1CC2CCC1C2)C1CC2CCC1C2 (stereo unspecified)
inactive: [12] 98 % of control | [6] 97 % of control | [13] 95 % of control | [7] 100 % of control | [14] 96 % of control | [8] 100 % of control

CC1CCC(O)C1O (stereo unspecified)
inactive: [15] 105 % of control | [16] 94 % of control | dose: 200.0 mg/kg/injection, schedule: Q01DX009 (ip), vehicle: saline 105 % of control | [17] 97 % of control | dose: 400.0 mg/kg/injection, schedule: Q01DX009 (ip), vehicle: saline 102 % of control | [18] 97 % of control

Nc1cccc2c1ccc1ccc3ccccc3c12
inactive: [19] 103 % of control | [20] 101 % of control | [21] 108 % of control

Cc1ccc(NC(=O)OCCOc2cc(C)c(Cl)c(C)c2)c([N+](=O)[O-])c1
inactive: dose: 50.0 mg/kg/injection, schedule: Q01DX009 (ip), vehicle: Klucel (hydroxypropylcellulose) (HPC) 95 % of control | [22] 95 % of control | [6] 90 % of control | [23] 91 % of control | [7] 97 % of control | [8] 92 % of control

COc1ccc(OC)c2[nH]c(=O)c(CCC(=O)O)nc12
inactive: dose: 100.0 mg/kg/injection, schedule: Q04DX003 (ip), vehicle: other 96 % of control | dose: 200.0 mg/kg/injection, schedule: Q04DX003 (ip), vehicle: other 96 % of control

COc1ccc(Br)cc1C1OC(=O)c2c(OC)c(OC)cc(O)c21 (stereo unspecified)
inactive: [19] 96 % of control | [20] 98 % of control | [21] 94 % of control

CN(C(=O)COc1ccc([N+](=O)[O-])cc1Cl)c1ccc(S(=O)(=O)F)cc1
inactive: [16] 104 % of control | [17] 95 % of control | [18] 96 % of control

CC(=O)OC/C=C(\C)CCC1OC1(C)C (stereo unspecified)
inactive: [9] 120 % of control | dose: 100.0 mg/kg/injection, schedule: Q04DX003 (ip), vehicle: water 102 % of control | [10] 108 % of control | dose: 200.0 mg/kg/injection, schedule: Q04DX003 (ip), vehicle: water 112 % of control | [11] 114 % of control | dose: 400.0 mg/kg/injection, schedule: Q04DX003 (ip), vehicle: water 101 % of control

C#CC(O)(/C=C\Cl)CC (stereo unspecified)
inactive: dose: 12.5 mg/kg/injection, schedule: Q01DX009 (ip), vehicle: saline 102 % of control | dose: 25.0 mg/kg/injection, schedule: Q01DX009 (ip), vehicle: saline 93 % of control | dose: 25.0 mg/kg/injection, schedule: Q04DX003 (ip), vehicle: saline 101 % of control | dose: 50.0 mg/kg/injection, schedule: Q01DX009 (ip), vehicle: saline 94 % of control | dose: 50.0 mg/kg/injection, schedule: Q04DX003 (ip), vehicle: saline 95 % of control | [15] 86 % of control | [16] 97 % of control | [17] 106 % of control

Cc1ccc2c(C)cc(=O)[nH]c2c1
inactive: dose: 100.0 mg/kg/injection, schedule: Q01DX001 (ip), vehicle: carboxymethylcellulose (CMC) 102 % of control | [12] 102 % of control | dose: 200.0 mg/kg/injection, schedule: Q01DX001 (ip), vehicle: carboxymethylcellulose (CMC) 91 % of control | [13] 101 % of control | dose: 400.0 mg/kg/injection, schedule: Q01DX001 (ip), vehicle: carboxymethylcellulose (CMC) 105 % of control | [14] 106 % of control

CC(C)(C)C(=O)CC(O)(C(F)(F)Cl)C(F)(F)Cl
inactive: [1] 107 % of control | [4] 91 % of control

CCCCCCCCCCCCCCCCCCOC(C)OCCCCCCCCCCCCCCCCCC
inactive: [1] 89 % of control | [4] 89 % of control | [5] 87 % of control

CC12CCC(Cl)(CC1O)C2(C)C (stereo unspecified)
inactive: [2] 102 % of control | [3] 97 % of control

CC(=O)N(C)c1ccc(C)cc1C
inactive: [1] 104 % of control | [4] 98 % of control | [5] 93 % of control

O=C(CCCCCCC(=O)C[n+]1ccccc1CO)C[n+]1ccccc1CO
inactive: dose: 12.5 mg/kg/injection, schedule: Q04DX003 (ip), vehicle: saline 101 % of control

N#Cc1nc(N)c(NC2(O)C(=O)Nc3ccccc32)nc1C#N (stereo unspecified)
inactive: dose: 100.0 mg/kg/injection, schedule: Q04DX002 (ip), vehicle: Klucel (hydroxypropylcellulose) (HPC) 97 % of control | dose: 200.0 mg/kg/injection, schedule: Q04DX002 (ip), vehicle: Klucel (hydroxypropylcellulose) (HPC) 105 % of control

O=C(O)c1c(-c2ccccc2)[nH]c2ccccc2c1=O
inactive: [6] 88 % of control | [7] 87 % of control | [8] 90 % of control

CNC(=O)OCC1=CC(=O)C(C)=CC1=O
inactive: dose: 1.56 mg/kg/injection, schedule: Q01DX009 (ip), vehicle: gum acacia 96 % of control | dose: 3.12 mg/kg/injection, schedule: Q01DX009 (ip), vehicle: gum acacia 89 % of control | dose: 6.25 mg/kg/injection, schedule: Q01DX009 (ip), vehicle: gum acacia 89 % of control | dose: 12.5 mg/kg/injection, schedule: Q04DX003 (ip), vehicle: gum acacia 95 % of control | dose: 25.0 mg/kg/injection, schedule: Q04DX003 (ip), vehicle: gum acacia 103 % of control

CCOc1ccc(NC(=O)Nc2ccccc2OC)cc1
inactive: [22] 97 % of control | [6] 94 % of control | [23] 95 % of control | [7] 92 % of control | dose: 400.0 mg/kg/injection, schedule: Q01DX009 (ip), vehicle: Klucel (hydroxypropylcellulose) (HPC) 101 % of control | [8] 97 % of control

O=S1(=O)CC(CBr)=C(CBr)C1
inactive: dose: 15.0 mg/kg/injection, schedule: Q01DX001 (ip), vehicle: carboxymethylcellulose (CMC) 94 % of control | dose: 30.0 mg/kg/injection, schedule: Q01DX001 (ip), vehicle: carboxymethylcellulose (CMC) 93 % of control | dose: 60.0 mg/kg/injection, schedule: Q01DX001 (ip), vehicle: carboxymethylcellulose (CMC) 100 % of control

CC(=N)Oc1ccccc1
inactive: dose: 75.0 mg/kg/injection, schedule: Q01DX001 (ip), vehicle: Klucel (hydroxypropylcellulose) (HPC) 101 % of control | dose: 150.0 mg/kg/injection, schedule: Q01DX001 (ip), vehicle: Klucel (hydroxypropylcellulose) (HPC) 106 % of control | dose: 300.0 mg/kg/injection, schedule: Q01DX001 (ip), vehicle: Klucel (hydroxypropylcellulose) (HPC) 102 % of control

CCCCn1c(C)nc2c([N+](=O)[O-])cc(C(F)(F)F)cc21
inactive: [19] 104 % of control | [21] 98 % of control

Cn1ncc2c(N(N)CCO)nc(-c3ccc([N+](=O)[O-])o3)nc21
inactive: dose: 50.0 mg/kg/injection, schedule: Q01DX001 (ip), vehicle: saline 108 % of control | [9] 108 % of control | [10] 104 % of control | [11] 117 % of control
